# US20080051418A1, “Arylalkanoic Acid Derivative” (priority 2004, published 2008)
# Read-outs that look alike come from different tables or passages of the source.
# Assays:
# KKA^y mice [1] = experiment: Plasma antiatherogenic index increasing action in mice; format: in vivo; details: Mus musculus, po, 96 h, 0.005% in powder diet, 4 days, increase rate of (HDL cholesterol/total cholesterol)×100, non-administration group = 100%
# Procedure: The test compound was mixed with a powder diet (CE-2, CLEA JAPAN, INC.) at a proportion of 0.005% (0.01% for the compound of Example 105) and freely given to KKA^y mice (9 to 12-week-old, 5 mice per group) which are obesity-insulin independent diabetes mellitus (type-2 diabetes) models, for 4 days. During this period, water was freely given. The blood was drawn from fundus and the components were measured using the plasma separated from the blood. The total cholesterol was quantified using L Type Wako cholesterol (Wako Pure Chemical Industries, Ltd.). In addition, an HDL cholesterol precipitation reagent (Wako Pure Chemical Industries, Ltd.) was added to a part of the plasma to allow precipitation of a non-HDL lipoprotein, and the cholesterol (HDL cholesterol) of the supernatant was measured. The plasma antiatherogenic index [(HDL cholesterol/total cholesterol)×100] was calculated from these cholesterol values.
# PPARγ-RXRα heterodimer = target: T1, PPARγ-RXRα heterodimer (Homo sapiens, UniProt P37231); experiment: PPARγ-RXRα heterodimer ligand activity (luciferase reporter); format: cell-based; details: PPARγ:RXRα:4ERPP/CHO-K1 cells, 18-24 hr, concentration showing 50% of the maximum induction rate
# T1 construct: expressed in transfected cells; host or cells: CHO-K1
# T1 sequence (P37231 1-505): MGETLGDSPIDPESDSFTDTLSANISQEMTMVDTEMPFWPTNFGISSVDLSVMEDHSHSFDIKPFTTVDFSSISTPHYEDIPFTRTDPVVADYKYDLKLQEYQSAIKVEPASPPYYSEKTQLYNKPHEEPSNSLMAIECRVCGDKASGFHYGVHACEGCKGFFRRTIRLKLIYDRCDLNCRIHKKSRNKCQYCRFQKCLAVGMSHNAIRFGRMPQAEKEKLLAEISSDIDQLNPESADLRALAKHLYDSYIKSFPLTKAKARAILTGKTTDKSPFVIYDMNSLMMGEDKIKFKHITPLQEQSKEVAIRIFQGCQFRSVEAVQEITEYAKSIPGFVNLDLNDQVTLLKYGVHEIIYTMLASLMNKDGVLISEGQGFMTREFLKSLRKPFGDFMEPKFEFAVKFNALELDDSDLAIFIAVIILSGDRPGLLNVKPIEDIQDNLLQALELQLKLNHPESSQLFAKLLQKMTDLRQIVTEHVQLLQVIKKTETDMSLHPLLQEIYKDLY
# T1 sequence (P19793 1-462 partner): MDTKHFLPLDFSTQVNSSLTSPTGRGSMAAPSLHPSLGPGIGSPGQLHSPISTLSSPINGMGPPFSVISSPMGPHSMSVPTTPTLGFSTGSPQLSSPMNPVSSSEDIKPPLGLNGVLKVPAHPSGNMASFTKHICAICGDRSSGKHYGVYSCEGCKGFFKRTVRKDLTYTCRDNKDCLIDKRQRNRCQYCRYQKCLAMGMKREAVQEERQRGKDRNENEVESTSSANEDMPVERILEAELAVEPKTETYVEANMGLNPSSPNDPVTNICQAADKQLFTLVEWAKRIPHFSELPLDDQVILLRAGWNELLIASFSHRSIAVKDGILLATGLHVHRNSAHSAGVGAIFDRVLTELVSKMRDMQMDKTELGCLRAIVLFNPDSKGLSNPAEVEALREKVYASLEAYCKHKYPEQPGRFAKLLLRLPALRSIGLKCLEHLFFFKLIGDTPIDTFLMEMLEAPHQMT
# In short: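 CHO-K1 cells carrying PPARγ, RXRα and a 4ERPP luciferase reporter, exposed to compound 18–24 h at 37 °C in Ham F12 with 0.1% fatty acid-free BSA. Luciferase induction expressed relative to untreated cells (= 1). EC50 is concentration giving 50% of maximal induction.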
# KKA^y mice [2] = experiment: Blood glucose and blood lipid (triglyceride) lowering action in mice; format: in vivo; details: Mus musculus, po, 96 h, 0.005% in powder diet, 4 days, non-administration group = 100%
# Description: The test compound was mixed with a powder diet (CE-2, CLEA JAPAN, INC.) at a proportion of 0.005% (0.01% for the compound of Example 105) and freely given to KKA^y mice (9 to 12-week-old, 5 mice per group) which are obesity-insulin independent diabetes mellitus (type-2 diabetes) models, for 4 days. During this period, water was freely given. The blood was drawn from the orbital venous plexus. Glucose and triglyceride in the plasma separated from the blood were quantitated using L Type Wako Glu2 (Wako Pure Chemical Industries, Ltd.) and L Type Wako TG•H (Wako Pure Chemical Industries, Ltd.), respectively, according to an enzyme method.
# PPARδ-RXRα heterodimer = target: T2, PPARδ-RXRα heterodimer (Homo sapiens, UniProt Q03181); experiment: PPARδ-RXRα heterodimer ligand activity (luciferase reporter); format: cell-based; details: transformant of Reference Example 9a of WO03/099793, 36-48 hr, concentration showing 50% of the maximum induction rate
# T2 construct: expressed in transfected cells
# T2 sequence (Q03181 1-441): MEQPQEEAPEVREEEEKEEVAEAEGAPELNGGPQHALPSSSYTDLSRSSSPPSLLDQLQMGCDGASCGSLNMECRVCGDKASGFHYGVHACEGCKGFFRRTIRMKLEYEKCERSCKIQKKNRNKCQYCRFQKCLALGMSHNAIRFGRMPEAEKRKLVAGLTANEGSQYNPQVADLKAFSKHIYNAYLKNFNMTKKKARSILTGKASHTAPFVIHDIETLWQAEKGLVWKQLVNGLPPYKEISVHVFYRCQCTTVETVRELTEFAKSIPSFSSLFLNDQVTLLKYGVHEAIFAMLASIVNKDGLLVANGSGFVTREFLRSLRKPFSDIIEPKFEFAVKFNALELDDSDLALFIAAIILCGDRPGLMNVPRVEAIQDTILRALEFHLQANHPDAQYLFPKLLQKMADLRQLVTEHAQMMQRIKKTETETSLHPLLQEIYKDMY
# T2 sequence (P19793 1-462 partner): T1 sequence (P19793 1-462 partner)
# Procedure: The transformant described in Reference Example 9a of WO03/099793 was suspended in a DMEM medium [manufactured by Life technologies, Inc., US] containing 0.1% fatty acid-free bovine serum albumin (BSA) (manufactured by Wako Pure Chemical Industries, Ltd.), and inoculated to each well of a 96 well white plate [manufactured by Corning Coster Corporation, US] by 80 μl to 1×10^4 cells/well. Then, the test compound (20 μl) was added, and cultured under the conditions of 37° C., 5% CO2 for 36-48 hr. The medium was removed from the 96 well white plate, 40 μl of PicaGene LT 7.5 (manufactured by Wako Pure Chemical Industries, Ltd.) diluted 2-fold with HBSS (HANKS' BALANCED SALT SOLUTION) [manufactured by BIO WHITTAKER, US] was added and, after stirring, the luciferase activity was determined using the 1420 ARVO Multilabel Counter [manufactured by PerkinElmer, US].
# The induction rate was calculated from the luciferase activity of each test compound based on the luciferase activity of the test compound non-administration group as 1. The test compound concentration and the induction rate were analyzed by PRISM [manufactured by GraphPad Software, Inc., US] to calculate EC50 value (compound concentration showing 50% of the maximum value of induction rate) of the test compound.
# [3] = lowering rate of plasma glucose, read-out: hypoglycemic action (%)
# [4] = lowering rate of plasma triglyceride, read-out: hypolipidemic action (%)
Compound,EC50 (PPARγ-RXRα heterodimer) [nM],EC50 (PPARδ-RXRα heterodimer) [nM],melting point [°C],change in vivo at 0.005 % (KKA^y mice [1]) [%],inhibition in vivo at 0.005 % (KKA^y mice [2]; [3]) [%],inhibition in vivo at 0.005 % (KKA^y mice [2]; [4]) [%]
"CCCOc1cc(CCCOc2c(CC(=O)O)cccc2OC)n(Cc2ccccc2)n1 [Example 56, {2-[3-(1-benzyl-3-propoxy-1H-pyrazol-5-yl)propoxy]-3-methoxyphenyl}acetic acid]",,,,12,,
"COc1cccc(CC(=O)O)c1OCCCc1cc(OC(C)C)nn1Cc1ccc(F)cc1Cl [Example 64, (2-{3-[1-(2-chloro-4-fluorobenzyl)-3-isopropoxy-1H-pyrazol-5-yl]propoxy}-3-methoxyphenyl)acetic acid]",11,93,,,59,71
"CCn1cc(CC(=O)O)c(OCCCc2ccc(OC(C)C)cc2Oc2ncc(C(F)(F)F)cc2Cl)n1 [Example 117, {3-[3-(2-{[3-chloro-5-(trifluoromethyl)pyridin-2-yl]oxy}-4-isopropoxyphenyl)propoxy]-1-ethyl-1H-pyrazol-4-yl}acetic acid]",0.78,4.3,,,49,18
"COCCOc1ccc(CCCOc2nn(C)cc2CC(=O)O)c(Oc2ncc(C(F)(F)F)cc2Cl)c1 [Example 122, (3-{3-[2-{[3-chloro-5-(trifluoromethyl)pyridin-2-yl]oxy}-4-(2-methoxyethoxy)phenyl]propoxy}-1-methyl-1H-pyrazol-4-yl)acetic acid]",4.1,76,127 to 129,,72,33
"CC(C)Oc1ccc(CCCOc2cc(CCC(=O)O)n(-c3ccccc3)n2)c(Oc2ncc(C(F)(F)F)cc2Cl)c1 [Example 136, 3-{3-[3-(2-{[3-chloro-5-(trifluoromethyl)pyridin-2-yl]oxy}-4-isopropoxyphenyl)propoxy]-1-phenyl-1H-pyrazol-5-yl}propanoic acid]",0.42,2.5,86 to 88,,57,38
"CC(C)Oc1ccc(CCCCOc2cc(CCC(=O)O)n(-c3ccccc3)n2)c(Oc2ncc(C(F)(F)F)cc2Cl)c1 [Example 156, 3-{3-[4-(2-{[3-chloro-5-(trifluoromethyl)pyridin-2-yl]oxy}-4-isopropoxyphenyl)butoxy]-1-phenyl-1H-pyrazol-5-yl}propanoic acid]",0.99,3.4,75 to 77,,,
"CCn1nc(OCCCCc2ccc(OC(C)C)cc2Oc2ncc(C(F)(F)F)cc2Cl)cc1CCC(=O)O [Example 158, 3-{3-[4-(2-{[3-chloro-5-(trifluoromethyl)pyridin-2-yl]oxy}-4-isopropoxyphenyl)butoxy]-1-ethyl-1H-pyrazol-5-yl}propanoic acid]",7.1,17,129 to 130,,,

# The next lines start with results.
EC50 (PPARγ-RXRα heterodimer) [nM],EC50 (PPARδ-RXRα heterodimer) [nM],melting point [°C],Compound,change in vivo at 0.005 % (KKA^y mice [1]) [%],inhibition in vivo at 0.005 % (KKA^y mice [2]; [3]) [%],inhibition in vivo at 0.005 % (KKA^y mice [2]; [4]) [%]
1.6,6.9,73 to 74,"CCn1nc(OCCCc2ccc(OC(C)C)cc2Oc2ncc(C(F)(F)F)cc2Cl)cc1CCC(=O)O [Example 141, 3-{3-[3-(2-{[3-chloro-5-(trifluoromethyl)pyridin-2-yl]oxy}-4-isopropoxyphenyl)propoxy]-1-ethyl-1H-pyrazol-5-yl}propanoic acid]",,44,41
1.4,11,71 to 73,"CC(C)Cn1nc(OCCCc2ccc(OC(C)C)cc2Oc2ncc(C(F)(F)F)cc2Cl)cc1CCC(=O)O [Example 143, 3-{3-[3-(2-{[3-chloro-5-(trifluoromethyl)pyridin-2-yl]oxy}-4-isopropoxyphenyl)propoxy]-1-isobutyl-1H-pyrazol-5-yl}propanoic acid]",,,
0.35,4.4,128 to 129,"COCCOc1ccc(CCCOc2cc(CCC(=O)O)n(-c3ccccc3)n2)c(Oc2ncc(C(F)(F)F)cc2Cl)c1 [Example 147, 3-(3-{3-[2-{[3-chloro-5-(trifluoromethyl)pyridin-2-yl]oxy}-4-(2-methoxyethoxy)phenyl]propoxy}-1-phenyl-1H-pyrazol-5-yl)propanoic acid]",,,
5.3,6,139 to 141,"CC(C)Oc1ccc(CCCOc2cc(CCC(=O)O)n(-c3ccccc3)n2)c(OCc2ccc(Cl)cc2Cl)c1 [Example 160, 3-[3-(3-{2-[(2,4-dichlorobenzyl)oxy]-4-isopropoxyphenyl}propoxy) -1-phenyl-1H-pyrazol-5-yl]propanoic acid]",,,
24,2.2,118 to 119,"CC(C)Oc1ccc(CCCOc2cc(CCC(=O)O)n(-c3ccccc3)n2)c(OCc2ccc(C(F)(F)F)cc2)c1 [Example 166, 3-{3-[3-(4-isopropoxy-2-{[4-(trifluoromethyl)benzyl]oxy}phenyl)propoxy]-1-phenyl-1H-pyrazol-5-yl}propanoic acid]",,,
16,11,104 to 106,"CC(C)Oc1cc(CCCOc2cc(CCC(=O)O)n(-c3ccccc3)n2)cc(COc2ccc(Cl)cc2Cl)c1 [Example 196, 3-[3-(3-{3-[(2,4-dichlorophenoxy)methyl]-5-isopropoxyphenyl}propoxy)-1-phenyl-1H-pyrazol-5-yl]propanoic acid]",,,
